Measured values reported in publication PMC9405973, “Altered Conformational Landscape upon Sensing Guanine Nucleotides in a Disease Mutant of Elongation Factor-like 1 (EFL1) GTPase” (Biomolecules, 2022).

Key:
[1] = system: wild-type Efl1; assay: ITC: binding of guanine nucleotides or Sdo1 to wild-type Efl1 (data of ref 6); design: species or system Saccharomyces cerevisiae; settings: native protein
[2] = target: T1, Efl1 mutant T33A in complex with Sdo1 and the 60S subunits (Saccharomyces cerevisiae, UniProt P53893, T33A); assay: Steady state fluorescence binding of mant-GTP to Efl1 T33A in complex with Sdo1 and 60S subunits; settings: 25 °C, one-binding-site model; read-out: dissociation constant (Kd)
T1 construct: made in house; host or cells: Efl1: Saccharomyces cerevisiae; Sdo1: Escherichia coli C41; 60S subunits purified from S. cerevisiae strain JD1370
T1 sequence (P53893 1-1110 T33A): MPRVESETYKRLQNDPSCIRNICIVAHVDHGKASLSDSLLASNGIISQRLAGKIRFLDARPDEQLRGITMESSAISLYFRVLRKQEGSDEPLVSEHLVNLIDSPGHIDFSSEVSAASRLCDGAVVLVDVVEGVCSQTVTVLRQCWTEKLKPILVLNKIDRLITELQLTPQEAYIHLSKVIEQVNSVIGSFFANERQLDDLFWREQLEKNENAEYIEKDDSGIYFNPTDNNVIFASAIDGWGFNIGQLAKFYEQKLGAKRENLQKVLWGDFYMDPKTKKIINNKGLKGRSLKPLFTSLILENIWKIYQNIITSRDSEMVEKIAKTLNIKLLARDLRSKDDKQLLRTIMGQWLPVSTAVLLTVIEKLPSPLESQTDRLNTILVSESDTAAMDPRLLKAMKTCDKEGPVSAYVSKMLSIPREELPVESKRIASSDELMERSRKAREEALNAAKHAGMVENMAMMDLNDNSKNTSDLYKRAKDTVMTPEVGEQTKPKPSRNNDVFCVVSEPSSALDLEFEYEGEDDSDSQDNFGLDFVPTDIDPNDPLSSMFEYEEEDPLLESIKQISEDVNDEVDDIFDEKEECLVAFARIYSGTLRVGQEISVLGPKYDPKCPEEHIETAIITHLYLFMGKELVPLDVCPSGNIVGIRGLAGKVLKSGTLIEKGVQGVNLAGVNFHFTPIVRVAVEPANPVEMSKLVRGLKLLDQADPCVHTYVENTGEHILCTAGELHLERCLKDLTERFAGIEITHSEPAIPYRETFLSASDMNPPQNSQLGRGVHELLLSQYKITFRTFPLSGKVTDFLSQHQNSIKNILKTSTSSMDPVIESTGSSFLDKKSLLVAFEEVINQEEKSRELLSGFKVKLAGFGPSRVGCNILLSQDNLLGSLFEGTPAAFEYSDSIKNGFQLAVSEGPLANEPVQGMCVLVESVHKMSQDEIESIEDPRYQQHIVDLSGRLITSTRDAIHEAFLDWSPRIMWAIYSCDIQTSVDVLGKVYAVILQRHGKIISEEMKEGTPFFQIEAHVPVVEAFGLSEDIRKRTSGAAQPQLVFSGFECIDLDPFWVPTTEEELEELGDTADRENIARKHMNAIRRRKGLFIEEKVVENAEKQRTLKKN
T1 sequence (Q07953 1-250 partner): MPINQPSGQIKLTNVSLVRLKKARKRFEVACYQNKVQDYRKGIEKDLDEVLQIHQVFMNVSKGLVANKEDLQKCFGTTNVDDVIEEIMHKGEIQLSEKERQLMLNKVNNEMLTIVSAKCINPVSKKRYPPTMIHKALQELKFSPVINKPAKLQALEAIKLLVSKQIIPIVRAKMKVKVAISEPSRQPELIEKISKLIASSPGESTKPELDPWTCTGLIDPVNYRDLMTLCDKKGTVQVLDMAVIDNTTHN
Experimental: We measured the binding of different Efl1 constructs present in complex with Sdo1 and 60S subunits to the fluorescence GTP analogue, mant-GTP, by following the increase in the fluorescence signal after excitation at 355 nm. Fluorescence intensities were plotted as a function of increasing nucleotide concentrations, and the dissociation constant (Kd) was calculated by fitting the data to a one-binding-site model (Supplementary Figure S1B).
Hydrolysis of GTP was measured using the Enzchek Phosphate Assay kit (Molecular Probes) as described by Webb. Standard reactions consisted of 100 µL containing 6 µM of Efl1 R1086Q and Efl1 L910K, 0.3 mM MESG, 1.0 U purine nucleoside phosphorylase (PNP) and the indicated amounts of GTP. […]
Reactions were initiated and the GTPase was added after 3 min. Time courses were followed by recording the change in absorbance at 360 nm in a Cary 60 UV -Vis spectrophotometer (Agilent Technologies). Background absorbance was recorded prior to the addition of the GTPase and subtracted from the sample signals. The slope of the measured time courses corresponded to the GTP hydrolysis rate. […] Data were analysed by nonlinear regression to the M ichaelis-Menten equation with the program Origin Version 5.0 (OriginLab, Co., Northampton, MA). […]
Steady state fluorescence measurements […]
Maximum emission at 440 nm was replotted as a function of nucleotide concentration and analysed

Row | SMILES | overall heat-capacity change to drive the protein into ternary complex GTPase•GTP•Sdo1 [1] [cal mol^−1 K^−1] | Kd [2] [µM]
1 | Nc1nc2c(ncn2[C@@H]2O[C@H](COP(=O)(O)OP(=O)(O)OP(=O)(O)O)[C@@H](O)[C@H]2O)c(=O)[nH]1 [GTP] | −950 | 
2 | CNc1ccccc1C(=O)O[C@H]1[C@@H](O)[C@H](n2cnc3c(=O)[nH]c(N)nc32)O[C@@H]1COP(=O)(O)OP(=O)(O)OP(=O)(O)O [mant-GTP] |  | 24
